Measurements from patent publication US7214694B2, “3-ox(adi)azolylpropanohydroxamic acids useful as procollagen C-proteinase inhibitors” (Pfizer Inc, priority 2001, dated 2007).
Read-outs that look alike come from different tables or passages of the source.

Assays:
human PCP = molecular target: T1, human PCP (Homo sapiens, UniProt P13497); experiment: fluorogenic PCP cleavage assay (PCP inhibition); type: biochemical; conditions: fluorogenic substrate 3×10^−6 M, pH 7.6, 37° C.
T1 construct: made in house; host or cells: CHO cells (stably transfected), purified from the supernatant
T1 sequence (P13497 121-986): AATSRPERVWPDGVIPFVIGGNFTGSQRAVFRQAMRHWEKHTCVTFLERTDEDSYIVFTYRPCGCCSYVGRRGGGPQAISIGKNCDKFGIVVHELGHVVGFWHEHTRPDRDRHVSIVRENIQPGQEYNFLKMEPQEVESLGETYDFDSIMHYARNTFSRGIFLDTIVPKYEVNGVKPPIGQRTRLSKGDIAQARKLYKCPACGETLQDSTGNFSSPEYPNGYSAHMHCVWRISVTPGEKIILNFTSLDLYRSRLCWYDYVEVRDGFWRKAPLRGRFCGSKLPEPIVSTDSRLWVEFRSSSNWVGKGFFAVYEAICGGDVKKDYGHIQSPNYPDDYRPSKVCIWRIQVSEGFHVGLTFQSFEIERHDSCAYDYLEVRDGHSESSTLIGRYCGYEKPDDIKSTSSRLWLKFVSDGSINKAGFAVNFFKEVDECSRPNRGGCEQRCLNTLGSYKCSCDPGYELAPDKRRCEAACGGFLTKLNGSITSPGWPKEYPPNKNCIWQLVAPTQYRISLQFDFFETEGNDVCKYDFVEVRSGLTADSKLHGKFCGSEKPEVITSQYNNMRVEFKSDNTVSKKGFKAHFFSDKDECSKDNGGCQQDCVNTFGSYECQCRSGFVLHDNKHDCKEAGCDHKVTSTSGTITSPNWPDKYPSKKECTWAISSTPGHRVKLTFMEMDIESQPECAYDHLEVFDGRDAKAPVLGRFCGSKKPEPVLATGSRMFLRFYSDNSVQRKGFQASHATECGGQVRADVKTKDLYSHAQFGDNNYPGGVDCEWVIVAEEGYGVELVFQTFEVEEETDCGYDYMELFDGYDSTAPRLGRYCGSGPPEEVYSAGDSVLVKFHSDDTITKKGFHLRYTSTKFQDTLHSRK
Description: In order to determine potency of PCP inhibitors a fluorogenic PCP cleavage assay was used. This assay is based on the template of Beekman et al. (FEBS Letters (1996), 390: 221–225) using a fluorogenic substrate. The substrate (Dabcyl-Arg-Tyr-Tyr-Arg-Ala-Asp-Asp-Ala-Asn-Val-Glu(EDANS)-NH2) contains the cleavage site of human PCP (Hojima et al., J Biol Chem (1985), 260:15996–16003). […]. The assay was performed in 96-well black fluorimeter plates and fluorescence was read continuously in a fluorimeter over 2.5 hours (λex=340 nm, λem=485 nm) at a constant 37° C. with shaking. Release of the fluorogenic signal was in linear correlation to PCP activity. Reading of the mean velocity from 30 min after start of experiment until 2.5 hours was calculated by the Biolise software. IC50 values were calculated by plotting % inhibition values against compound concentration using Tessela add in for Excel spreadsheet.

PCP = conditions: cited from earlier work

## O=C(C[C@@H](CCCC1CCCCC1)c1nc(CNS(=O)(=O)c2ccccn2)no1)NO [Example 6, (3 R)-6-cyclohexyl-N-hydroxy-3-(3-[(2-pyridinylsulfonyl)amino]methyl-1,2,4-oxadiazol-5-yl)hexanamide]
Human PCP
  IC50: 107 nM

## CC(C)(C)NS(=O)(=O)NCc1noc([C@H](CCCC2CCCCC2)CC(=O)NO)n1 [Example 17, (3 R)-3-[3-({[(tert-butylamino)sulfonyl]amino}methyl)-1,2,4-oxadiazol-5-yl]-6-cyclohexyl-N-hydroxyhexanamide]
Human PCP
  IC50: 98 nM

## CCNCc1noc([C@H](CCCC2CCCCC2)CC(=O)NO)n1 [Example 32, (3R)-6-cyclohexyl-3-{3-[(ethylamino)methyl]-1,2,4-oxadiazol-5-yl}-N-hydroxyhexanamide]
other
  melting point: 69.4 to 71.4 °C

## CCCNCc1noc([C@H](CCCC2CCCCC2)CC(=O)NO)n1 [Example 33, (3R)-6-cyclohexyl-N-hydroxy-3-{3-[(propylamino)methyl]-1,2,4-oxadiazol-5-yl}hexanamide]
other
  melting point: 90.4 to 91.8 °C

## CC(C)CNCc1noc([C@H](CCCC2CCCCC2)CC(=O)NO)n1 [Example 35, (3R)-6-cyclohexyl-N-hydroxy-3-{3-[(isobutylamino)methyl]-1,2,4-oxadiazol-5-yl}hexanamide]
other
  melting point: 97.8 to 99 °C

## CCC(CC)NCc1noc([C@H](CCCC2CCCCC2)CC(=O)NO)n1 [Example 37, (3R)-6-cyclohexyl-3-(3-{[(1-ethylpropyl)amino]methyl}-1,2,4-oxadiazol-5-yl)-N-hydroxyhexanamide]
other
  melting point: 102.7 to 104.3 °C

## O=C(C[C@@H](CCCC1CCCCC1)c1nc(CNC2CCC2)no1)NO [Example 39, (3R)-3-{3-[(cyclobutylamino)methyl]-1,2,4-oxadiazol-5-yl}-6-cyclohexyl-N-hydroxyhexanamide]
other
  melting point: 82 to 83.9 °C

## O=C(C[C@@H](CCCC1CCCCC1)c1nc(CNC2CCCCC2)no1)NO [Example 41, (3R)-6-cyclohexyl-3-{3-[(cyclohexylamino)methyl]-1,2,4-oxadiazol-5-yl}-N-hydroxyhexanamide]
other
  melting point: 127 °C

## COCCCNCc1noc([C@H](CCCC2CCCCC2)CC(=O)NO)n1 [Example 45, (3R)-6-cyclohexyl-N-hydroxy-3-(3-{[(3-methoxypropyl)amino]methyl}-1,2,4-oxadiazol-5-yl)hexanamide]
other
  melting point: 60 °C

## O=C(C[C@@H](CCCC1CCCCC1)c1nc(CNC2CCOCC2)no1)NO [Example 50, (3R)-6-cyclohexyl-N-hydroxy-3-{3-[(tetrahydro-2H-pyran-4-ylamino)methyl]-1,2,4-oxadiazol-5-yl}hexanamide]
other
  melting point: 108.9 to 110.3 °C

## O=C(C[C@@H](CCCC1CCCCC1)c1nc(CN2CCC(O)CC2)no1)NO [Example 64, (3R)-6-cyclohexyl-N-hydroxy-3-{3-[(4-hydroxy-1-piperidinyl)methyl]-1,2,4-oxadiazol-5-yl}hexanamide]
other
  melting point: 85 °C

## O=C(C[C@@H](CCCC1CCCCC1)c1nc(CN2CCOCC2)no1)NO [Example 65, (3R)-6-cyclohexyl-N-hydroxy-3-[3-(4-morpholinylmethyl)-1,2,4-oxadiazol-5-yl]hexanamide]
other
  melting point: 138 to 139 °C

## O=C(C[C@@H](CCCC1CCCCC1)c1nc(CNC2CCCC2)co1)NO [Example 69, (3R)-6-cyclohexyl-3-{4-[(cyclopentylamino)methyl]-1,3-oxazol-2-yl}-N-hydroxyhexanamide]
other
  melting point: 124 to 127 °C

## O=C(C[C@@H](CCCC1CCCCC1)c1nc(CN2CCOCC2)co1)NO [Example 70, (3R)-6-cyclohexyl-N-hydroxy-3-[4-(4-morpholinylmethyl)-1,3-oxazol-2-yl]hexanamide]
other
  melting point: 117 to 119 °C

## Cc1oc([C@H](CCCC2CCCCC2)CC(=O)NO)nc1CNC1CCOCC1 [Example 71, (3R)-6-cyclohexyl-N-hydroxy-3-{5-methyl-4-[(tetrahydro-2H-pyran-4-ylamino)methyl]-1,3-oxazol-2-yl}hexanamide]
other
  melting point: 108 to 110 °C

## Cc1oc([C@H](CCCC2CCCCC2)CC(=O)NO)nc1CN1CCOCC1 [Example 72, (3R)-6-cyclohexyl-N-hydroxy-3-[5-methyl-4-(4-morpholinylmethyl)-1,3-oxazol-2-yl]hexanamide]
Human PCP
  IC50: 37 nM

## [Cl-].[Na+] [NaCl]
PCP; 0.2M NaCl
  activity of PCP, of that observed with the standard assay concentration of 0.15M: 66%
PCP; 0.3M NaCl
  activity of PCP, of that observed with the standard assay concentration of 0.15M: 38%
PCP; 0.5M NaCl
  activity of PCP, of that observed with the standard assay concentration of 0.15M: 25%
